What was measured:
Assay type in all cases: in vivo
[1] = tested on: Xanthomonas axonopodis pv. vesicatoria; test: ISR screening under greenhouse conditions, bacterial spot disease in pepper; settings: irrigation, 1 mM, second screening
Procedure: FIGS. 1A and 1B illustrate the effect of the eighteen different volatile organic compounds from Bacillus amyloliquefaciens IN937a strain on plant ISR against Xanthomonas axonopodis pv. vesicatoria under greenhouse conditions. […] The positive control plant was treated with 0.5 mM benzothiadiazole (BTH). The disease occurrence rate (i.e., 0 to 5) as an indicator of ISR was measured on Day 7 following inoculation of pathogen (i.e., 0: no symptoms; 5: severe symptoms of necrosis).
In order to determine the ISR properties of the previously selected, eighteen different volatile organic compounds from the Bacillus amyloliquefaciens IN937a strain, young pepper was grown for 3 to 4 weeks after seeding and irrigated, with the compounds present, in concentrations of 10 μM or 100 nM in 50 ml volumes. One week following irrigation treatment, the plant was exposed to Xanthomonas axonopodis pv. vesicatoria at a concentration of 10^7 CFU/ml. Symptoms of disease were observed five to seven days later, and the level of disease was measured based on a scale from 0 to 5, as described above. In a second screening, four volatile substances, selected from the first screening, were incorporated into the irrigation treatment at concentrations of 1 mM, 10 μM, 0.1 μM, and 1 nM. After exposure to pathogen, symptoms of disease were observed.

[2] = tested on: Xanthomonas axonopodis pv. vesicatoria; test: ISR under field conditions, bacterial spot disease in pepper; settings: for disease level (ISR against bacterial spot disease): 1 mM 3-pentanol; for resistance to the disease (bacterial spot): additional 3-pentanol treatment
Procedure: FIGS. 2A and 2B illustrate the effect of 3-pentanol on plant ISR against Xanthomonas axonopodis pv. vesicatoria under field conditions at different time points. The ISR effect of 3-pentanol was measured on Day 10, Day 20, Day 30, and Day 40 after seedling transplantation. The positive control plant was treated with 0.5 mM BTH. The disease occurrence rate (i.e., 0 to 5) as an indicator of ISR was measured on Day 10 following inoculation of pathogen.
3-Pentanol, having shown ISR properties, was used for subsequent direct applications. Pepper seeds were purchased from Heungnong Jongmyo (breed; Bugang). The surface of the seeds were sterilized for 5 minutes using 1% sodium hypochlorite and rinsed with sterilized water for 5 min. The surface sterilized seeds were allowed to germinate on MS medium containing an appropriate amount of moisture. Germinated seeds, without m having any contamination, were planted in a 50-hole pot (28×54×6 cm) filled with soil for horticultural use (Punong Co., Ltd, Korea) and cultivated for six weeks in a greenhouse at 20 to 30° C. Six weeks after seeding and upon growth of seven to eight main leaves, 1 mM 3-pentanol was diluted to a volume of about 3 liters with sterilized water and poured into the 50-hole pot dish. In order to have effective soaking of the immersion solution in the soil and roots of the plant, immersion was carried out over about 24 hours. After 24-hour immersion, the young pepper plants were transplanted into a field (i.e., Chungyong-Li, Gaduk-Myon, Chungwon-Gun, Chungchongbuk-Do, South Korea 36°32′27.26″ North and 127°33′07.81″ East). The burrow to burrow distance was 1.2 m and the field was about 12.5 m to ensure the treatment areas were evenly mixed with each other. Twenty days after the final transplantation into the field, a secondary application of 1 mM 3-pentanol diluted to a volume of about 3 liters with sterilized water, was applied as 100 mL irrigation treatments for each. The test method used was as follows: after final transplantation, using a syringe, Xanthomonas axonopodis pv. vesicatoria at the concentration of 10^7 CFU/ml was exposed to the backside of the pepper leaf at intervals of 10 days until Day 40. Responses were then examined seven to ten days after exposure. The bacterial inoculant has been cultured for 48 hours at 30° C. after adding antibiotics of Rifampicin (100 μg/ml) to a solid medium. The control group received zero treatment and the treatment group received four applications. The disease occurrence rate was determined based on comparison and observation at 10 day intervals until Day 40. The severity of symptoms was scored as in Yang et al. 2009, Plant Pathol. […]

[3] = tested on: PR1 and PR4 genes; test: Expression analysis of resistance genes by qRT-PCR; settings: pepper leaf, six hours after inoculation of pathogen
Procedure: FIGS. 3A through 3D illustrate expression of the defense-related genes PR1 and PR4 induced by 3-pentanol following inoculation of pathogen to pepper. Expression of the defense signal transduction related genes PR1 and PR4 at 10 dpt (FIG. 3A), 20 dpt (FIG. 3B), 30 dpt (FIG. 3C), and 40 dpt (FIG. 3D) was determined by quantitative RT-PCR. Relative RNA levels were calibrated and normalized to the level of CaActin mRNA. The samples were collected 6 hours post inoculation of pathogen. The positive control group plant was treated with BTH.
Expression of PR1 and PR4 genes related to the disease resistance of pepper were examined based on quantitative real time-polymerase chain reaction (qRT-PCR). The sequences of the primers used are as follows.
Following bacterial exposure to the backside of a pepper leaf, the pepper leaf was cut using scissors at 0 hours and at 6 hours and stored in liquid nitrogen. RNA isolation began with the pepper leaf being ground in liquid nitrogen using a mortar and pestle, The RNA was then extracted from the pepper leaf by using TRIzol Reagent (Invitrogen Life Technologies). […]

[4] = tested on: cucumber mosaic virus; test: ISR against naturally occurring cucumber mosaic virus disease under field conditions; settings: pepper, three months after final transplantation, versus control group
Description: (§1) FIGS. 5A through 5C illustrate the effect of 3-pentanol on ISR against naturally occurring plant diseases under field conditions. FIG. 5A illustrates the effect of 3-pentanol on cucumber mosaic virus (CMV) disease three months after the treatment, FIG. 5B illustrates the symptoms of the viral disease (the photographic image was taken three months after the naturally occurring plant disease), and FIG. 5C illustrates the effect of 3-pentanol on bacterial leaf spot disease three months after treatment. The positive control group plant was treated with 0.5 mM BTH. The disease occurrence rate (i.e., 0 to 5) as an indicator of ISR was measured three months after transplantation (i.e., 0: no symptoms; 5: severe symptoms of necrosis).
(§2) 3-Pentanol, having shown ISR properties, was used for subsequent direct applications. Pepper seeds were purchased from Heungnong Jongmyo (breed; Bugang). The surface of the seeds were sterilized for 5 minutes using 1% sodium hypochlorite and rinsed with sterilized water for 5 min. The surface sterilized seeds were allowed to germinate on MS medium containing an appropriate amount of moisture. […] The disease occurrence rate was determined based on comparison and observation at 10 day intervals until Day 40. The severity of symptoms was scored as in Yang et al. 2009, Plant Pathol. […]

[5] = tested on: bacterial leaf spot disease; test: ISR against naturally occurring bacterial leaf spot disease under field conditions; settings: pepper, three months after final transplantation
Description: as §1, §2

[6] = tested on: Pseudomonas syringae pv. lachrymans; test: Angular leaf spot disease severity in cucumber; settings: 1 mM drench, 28 days post seeding, 7 days after spray-challenge
Procedure: FIG. 7 illustrates induction of systemic resistance by 1 mM 3-pentanol against Pseudomonas syringae pv. lachrymans. The severity of symptoms was scored from 0 to 5 as follows: 0, no symptoms; 1, yellowish color; 2, chlorosis only; 3, partial necrosis and chlorosis; 4, necrosis of the inoculated area and expanded chlorosis; and 5, complete necrosis of the inoculated area. Disease severity of cucumber treated with 3-pentanol was assessed 7 days after infection with P. syringae pv. lachrymans. Water and 1 mM BTH were used as negative and positive controls, respectively. […] Error bars indicate the standard error (n=16). […]
For pathogen challenge, a culture of the compatible bacterial pathogen Pseudomonas syringae pv. lachrymans (OD600=1 in 10 mM MgCl2) was spray-challenged on cucumber leaves until run-off at 7 days after the drench application of chemicals to roots at 21 days after seeding. The severity of symptoms was scored from 0 to 5 as follows: 0, no symptoms; 1, less than 20% diseased area; 2, 21%-40% diseased area; 3, 41%-60% diseased area; 4, 61%-80% diseased area; and 5, more than 81% diseased area of the entire leaf Bacterial pathogens were cultured overnight at 28° C. in King's B medium supplemented with the appropriate antibiotics (100 μg/mL). […] The total numbers of nymph and adult aphids were counted at 34 days after seeding. […]

[7] = tested on: aphids; test: Aphid infestation of cucumber, naturally occurring aphids; settings: 1 mM soil drench, 34 dps
Description: FIGS. 8A and 8B illustrate that 3-pentanol confers induced resistance against aphids in cucumber: (a), Nymph number; (b), Adult number. Bars represent the mean±SE (sample size, n=12 replications per treatment).
Cucumber plants (Cucumis sativus L. cv. backdadagi) were cultivated in an open field under natural conditions. For greenhouse experiments, seeds were directly planted in pots containing soilless medium (Punong Co. Ltd., Gyeongju, Korea) in a 24 hole plug tray under greenhouse condition. The germinated seedlings were transplanted into large pots (diameter=30 cm; height=30 cm). Chemical treatments to elicit induced resistance in cucumber were carried out. Briefly, the 14 day old cucumber seedlings were treated by direct drench application of 50 mL solution of 1 mM 3-pentanol. 3-pentanol bought from Sigma-Aldrich Co. was dissolved in distilled water before application. Treatments with 1 mM benzothiadiazole (BTH) and water were used as positive and negative controls, respectively.
For pathogen challenge, a culture of the compatible bacterial pathogen Pseudomonas syringae pv. lachrymans (OD600=1 in 10 mM MgCl2) was spray-challenged on cucumber leaves until run-off at 7 days after the drench application of chemicals to roots at 21 days after seeding. The severity of symptoms was scored from 0 to 5 as follows: 0, no symptoms; 1, less than 20% diseased area; 2, 21%-40% diseased area; 3, 41%-60% diseased area; 4, 61%-80% diseased area; and 5, more than 81% diseased area of the entire leaf Bacterial pathogens were cultured overnight at 28° C. in King's B medium supplemented with the appropriate antibiotics (100 μg/mL). As a positive control, roots were treated with 1 mM BTH. […] To investigate whether the 3-pentanol elicited plant immunity to aphid feeding, numbers of naturally occurring aphids (in 2011, Daejeon, Korea) were counted. Application of 1 mM BTH was used as a positive control. The total numbers of nymph and adult aphids were counted at 34 days after seeding. The experiments were repeated with similar results.

CCC(O)CC [3-pentanol]
resistance to bacterial spot disease in pepper, outcome of screening [1]: finally selected
disease level (ISR against bacterial spot disease) ([2]; ten days after final transplantation): no difference compared to the control group
disease level (ISR against bacterial spot disease) ([2]; twenty days after final transplantation): less than the control group
resistance to the disease (bacterial spot) ([2]; forty days after final transplantation): higher resistance to the disease compared to the control group
resistance to the disease (bacterial spot) ([2]; thirty days after final transplantation): higher resistance to the disease compared to the control group
expression level of PR gene ([3]; Day 10 after final transplantation): lower expression level of PR gene compared to the control group
expression of PR gene ([3]; from Day 20 after transplantation): the same or higher than that of the control group
resistance to cucumber mosaic virus [4]: significantly increased
resistance to bacterial leaf spot disease [5]: not different among three treatment groups
less symptom severity compared to water control [6]: 24%
number of adult aphids [7]: 1.0 per leaf
number of aphid nymphs [7]: 21 per leaf

c1ccc2snnc2c1 [BTH, benzothiadiazole, reference compound]
resistance to cucumber mosaic virus [4]: almost the same
resistance to bacterial leaf spot disease [5]: not different among three treatment groups
number of adult aphids [7]: 0.4 per leaf
number of aphid nymphs [7]: 20 per leaf

Reference: US20130267422A1, “COMPOSITION FOR CONTROLLING PLANT DISEASES COMPRISING 3-PENTANOL AS EFFECTIVE COMPONENT” (Korea Research Institute Of Bioscience And Biotechnology, priority 2010, published 2013)
